Experimental data from patent publication US4870098A, “Antagonists of leukotriene D4” (G. D. Searle & Co., priority 1989, dated 1989).

How the values were obtained:
[1] = system: LTB4-induced dermal neutrophil chemotaxis (MPO activity); test: Guinea Pig LTB4-Induced Dermal Chemotaxis; type: in vivo; conditions: Cavia porcellus, method: 35 ng LTB4 intradermal, compound IV or IG, MPO at 4 hours, read-out: LTB4 antagonism: Guinea Pig LTB4 Induced Dermal Chemotaxis (IC50)
Protocol: Guinea Pig LTB4 -Induced Dermal Chemotaxis
Test compound was administered intravenously or intragastrically at various times prior to the injection of leukotriene B4 (LTB4). LTB4 was diluted in phosphate buffered saline (PBS) and 35 ng in 0.2 ml were injected intradermally into the shaven backs of anesthetized guinea pigs. PBS was injected as control. Four hours later, animals were sacrificed, skins removed and stored frozen (-70° C.). Injection sites were removed with a skin punch and mechanically homogenized (Polytron, Brinkmann Instruments). Myeloperoxidase (MPO), a marker enzyme for neutrophils, was extracted by 0.5% hexadecyltrimethylammonium bromide in 50 mM potassium phosphate buffer (pH 6.0), using sonication and freeze-thaw procedures. After centrifugation (40,000×g, 30 minutes), enzyme activities in the supernatants were assayed spectrophotometrically (A460) by measuring the decomposition of hydrogen peroxide with ortho-dianisidine after 15 minutes. […] In guinea pigs the level of MPO activity increased with the amount of LTB4 injected.

[2] = biological target: T1, LTD4 receptor (guinea pig lung receptors) (Cavia porcellus, UniProt Q2NNR5); test: Leukotriene Receptor Binding Assay (LTD4 receptor binding, guinea pig lung membrane); conditions: LTD4 binding to guinea pig lung membrane receptors; read-out: LTD4 antagonism: Receptor Binding Assay (IC50)
T1 construct: isolated from guinea pig lung membrane; from tissue; host or cells: guinea pig lung membrane
T1 sequence (Q2NNR5 1-340): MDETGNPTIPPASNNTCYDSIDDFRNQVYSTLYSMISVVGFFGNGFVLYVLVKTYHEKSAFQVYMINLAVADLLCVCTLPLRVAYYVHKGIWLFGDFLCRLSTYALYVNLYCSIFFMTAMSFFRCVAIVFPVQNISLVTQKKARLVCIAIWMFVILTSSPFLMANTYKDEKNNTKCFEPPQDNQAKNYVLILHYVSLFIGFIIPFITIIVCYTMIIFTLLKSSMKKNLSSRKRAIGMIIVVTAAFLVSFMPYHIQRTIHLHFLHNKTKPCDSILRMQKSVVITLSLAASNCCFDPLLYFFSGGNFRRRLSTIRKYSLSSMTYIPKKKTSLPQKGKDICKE
Protocol: Leukotriene Receptor Binding Assay
The in vitro LTD4 receptor binding assay is carried out as follows:
Specific binding of titrated LTD4 to a fixed number of guinea pig lung receptors, isolated from guinea pig lung membrane, is measured in the presence and absence of test compound. The initial screening dose (1×10^-5 M) is considered active if the specific binding of the LTD4 is reduced by 45% or more. Active compounds are tested in a dose-response manner to determine IC50 values.

[3] = system: LTD4-induced bronchoconstriction; test: In Vivo Bronchoconstriction Assay (LTD4-induced intratracheal insufflation pressure increase); design: species or system guinea pig (Hartly); conditions: guinea pig, 2000 units of LTD4 IV
Protocol: The compounds are tested in vivo as follows. Adult male fasted Hartly guinea pigs weighing 300-350 g are pretreated with pyrilamine and indomethacin to block the bronchoconstricture effects of endogenous histamine and the synthesis of thromboxane A2 respectively. Compounds of the invention are administered IV or IG at appropriate times prior to the IV administration of 2000 units of LTD4. Intratracheal pressure is monitored prior to and subsequent to LTD4 in animals anesthetized with pentobarbital and attached to a rodent respirator. Compounds which antagonize the direct component of LTD4 action on respiratory smooth muscle inhibit intratracheal insufflation pressure increases (P< or =0.05) caused by LTD4. FPL 55712 is used as a control.

[4] = biological target: T2, guinea pig ileum (LTD4-induced contraction) (Cavia porcellus, UniProt Q2NNR5); test: LTD4 Antagonism in Guinea Pig Ileum; type: cell-based; conditions: pA2, negative log of antagonist concentration required to produce a dose-ratio of 2
T2 construct: Fresh segments of guinea pig ileum; from tissue; host or cells: guinea pig ileum segments
T2 sequence (Q2NNR5 1-340): T1 sequence (Q2NNR5 1-340)
Protocol: LTD4 Antagonism in Guinea Pig Ileum
Fresh segments of guinea pig ileum were suspended in 2 ml. tissue baths containing oxygenated modified Tyrodes solution. After an equilibration period, an agonist dose-response curve was generated by exposing each tissue to 4 different LTD4 doses and measuring the ensuing contractile heights. The ileum segments were washed and rested between exposures to agonist. Following this, the tissues were incubated with a single concentration of test compound and the agonist dose-response procedure was repeated. The dose ratio is a measure of the antagonist's ability to shift the agonist dose-response curve to the right. It is derived as the concentration of agonist necessary to reach a given response level in the presence (A') versus the absence (A) of antagonist. For example, if the test concentration of compound had no effect on the agonist-induced response (A'=A) the dose-ratio would approximate 1. […] One dose-ratio value is determined for each strip of ileum used to test antagonist. […] Schild analysis examines the linearity of the function described by the dose-ratios written as log [(A'/A)-1] versus antagonist concentration. If the linearity is […] and the slope approximates 1, inhibition is considered to be competitive. The pA2 is the negative log of the antagonist concentration required to produce a dose-ratio of 2. […]

[5] = biological target: T3, LTB4 receptor (Homo sapiens, UniProt Q15722); test: LTB4 Receptor Binding Assay (human neutrophils); conditions: 0.6 nano M (3H) LTB4, 0° C., 45 minutes, read-out: LTB4 antagonism: Receptor Binding Assay (IC50)
T3 construct: Neutrophils are purified from venous blood of normal human donors; endogenous in cells; host or cells: human neutrophils from venous blood
Protocol: (§1) Preparation of Human Neutrophils
(§2) Neutrophils are purified from venous blood of normal human donors using standard techniques of dextran sedimentation, centrifugation on Histopaque sterile solution (Sigma) and hypotonic lysis of erythrocytes (Boyum, A., Isolation of Leukocytes From Human Blood: Further Observations. Scand. J. Lab. Clin. Invest. 21 (Suppl. 97): 31, 1968). The purity of isolated neutrophils was ≥95%.
LTB4 Receptor Binding Assay
Neutrophils (4-6×10^6) in 1 ml Hanks' balanced salt solution containing 10 mM HEPES buffer (HBSS), pH 7.4 and […] nordihydroguaiaretic acid were incubated with 0.6 nano M (^3 H) LTB4 in the presence or absence of test compounds. The incubation was carried out at 0° C. for 45 minutes and terminated by adding 5 ml of ice-cold HBSS followed by rapid filtration of incubation mixture under vacuum through GF/C glass fiber filters. The filters were further washed with 10 ml HBSS and radioactivity was determined. […] All data refer to specific binding.

[6] = system: human neutrophils (myeloperoxidase release); test: Human Neutrophil Degranulation Assay; type: cell-based; conditions: table head LTB4 antagonism (method: LTB4 5×10^-8 M or f-met-leu-phe 5×10^-6 M)
Protocol: as §1, §2
Human Neutrophil Degranulation Assay
Neutrophil degranulation was determined by measuring the release of myeloperoxidase activity into the incubation medium. Neutrophils (3×10^6) in 1 ml HBSS solution were preincubated with cytochalasin B(5μg) at 37° C. for 5 minutes, followed by preincubation with test compounds for 7 minutes. […] The supernatants and the pellet-extracts were then assayed spectrophotometrically for myeloperoxidase activity by determining the rate of decomposition of H2 O2 with o-dianisidine as hydrogen donor as described by Renlund, et al. (Renlund, D. G., MacFarlane, J. L., Christensen, R. D., Lynch, R. E., and Rothstein, G., A Quantitive And Sensitive Method for Measurement of Myeloperoxidase, Clinical Research 28:75A, 1980). Myeloperoxidase activity released into the supernatant was expressed as the percent of the average total activity (pellet plus supernatant).

T3 sequence (Q15722 whole entry): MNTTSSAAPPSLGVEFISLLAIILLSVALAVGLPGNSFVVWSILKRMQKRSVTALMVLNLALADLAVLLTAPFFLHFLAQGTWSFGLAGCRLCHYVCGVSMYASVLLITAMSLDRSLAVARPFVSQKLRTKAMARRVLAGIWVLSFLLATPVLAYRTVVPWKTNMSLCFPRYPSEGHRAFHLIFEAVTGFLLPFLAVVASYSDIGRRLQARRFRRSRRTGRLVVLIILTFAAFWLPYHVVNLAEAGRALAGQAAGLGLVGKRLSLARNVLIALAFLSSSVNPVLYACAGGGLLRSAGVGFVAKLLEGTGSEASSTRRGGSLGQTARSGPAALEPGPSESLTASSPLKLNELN

IC50 [1]: 8.3 µM
IC50 [2]: 6.15 µM
Kb [4]: 0.0457 µM
IC50 [5]: 0.8 µM
IC50 [6]: 7.3 µM
Compound: CCCc1c(OCCCSCC2COC3(CCC(CC(=O)O)C3)S2)ccc(C(C)=O)c1O (stereo not drawn) [Example 2, 3-[[[3-(4-acetyl-3-hydroxy-2-propylphenoxy)propyl]thio]methyl]-1-oxa-4-thiaspiro[4.4]nonane-7-acetic acid]
LTD4 antagonism: In Vivo Bronchoconstriction Assay (% Inhibition at 5 mpk. IV) [3]: 94.7%
